Patent US20260176320A1, “MODULATORS OF G-PROTEIN COUPLED RECEPTORS” (priority 2018, published 2026)
Like-named read-outs stand apart in the source and are kept apart here.

Columns and labels:
Format in all cases: cell-based
[1] = molecular target: T1, GLP-1R (Homo sapiens, UniProt P43220); assay: HitHunter cAMP assay (GLP-1R); conditions: Table 3A, cAMP; for Emax: read-out: (Emax) GLP-1R
How it was run: (§1)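 Agonist stimulation lasts 30 min at room temperature on 10,000 cells per well, with phosphodiesterase blocked by 625 μM IBMX. Accumulated cAMP is quantified by competitive antibody luminescence after overnight development.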

[2] = molecular target: T2, GIP-R (Homo sapiens, UniProt P48546); assay: HitHunter cAMP assay (GIP-R); conditions: Table 3A, cAMP; for Emax: read-out: (Emax) GIP-R
T2 sequence (P48546 22-466): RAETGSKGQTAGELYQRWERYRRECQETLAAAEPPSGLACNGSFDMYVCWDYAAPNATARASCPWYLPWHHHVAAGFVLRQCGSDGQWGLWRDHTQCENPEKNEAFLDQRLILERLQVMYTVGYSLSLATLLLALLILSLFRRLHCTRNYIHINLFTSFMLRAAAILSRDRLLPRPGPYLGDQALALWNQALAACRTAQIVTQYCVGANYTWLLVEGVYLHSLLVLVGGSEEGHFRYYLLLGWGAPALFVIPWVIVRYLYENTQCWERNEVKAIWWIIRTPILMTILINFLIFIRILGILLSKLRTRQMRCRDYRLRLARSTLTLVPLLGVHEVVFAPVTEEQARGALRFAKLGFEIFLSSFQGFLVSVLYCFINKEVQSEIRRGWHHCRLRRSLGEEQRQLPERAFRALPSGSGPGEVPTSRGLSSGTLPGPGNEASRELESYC
How it was run: as §1

[3] = molecular target: T1, GLP-1R; assay: PathHunter β-arrestin assay
How it was run: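 Recruitment of β-arrestin is measured by luminescence after cells, plated overnight, receive serially diluted agonist for 90 min at 37 °C in medium with 0.2% BSA. Detection reagent then develops for 3 h at room temperature, protected from light.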

T1 sequence (P43220 24-463): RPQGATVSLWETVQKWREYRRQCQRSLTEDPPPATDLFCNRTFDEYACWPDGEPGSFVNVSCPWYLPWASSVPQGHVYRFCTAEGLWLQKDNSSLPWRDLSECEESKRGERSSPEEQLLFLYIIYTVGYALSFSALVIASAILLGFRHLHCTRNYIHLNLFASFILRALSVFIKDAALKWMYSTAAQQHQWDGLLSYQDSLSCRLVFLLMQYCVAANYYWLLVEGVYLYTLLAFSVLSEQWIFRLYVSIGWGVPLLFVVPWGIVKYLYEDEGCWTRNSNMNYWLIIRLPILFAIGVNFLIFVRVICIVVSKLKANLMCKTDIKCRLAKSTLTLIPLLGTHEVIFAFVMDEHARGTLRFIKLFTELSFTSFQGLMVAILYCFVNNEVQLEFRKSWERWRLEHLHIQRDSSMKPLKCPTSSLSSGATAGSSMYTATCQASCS

SMILES | EC50 ([1]; EC50 GLP-1R/nM) | Emax [1] | EC50 ([2]; EC50 GIP-R/nM) | Emax [2] | EC50 [3] | EC50 ([1]; read-out: EC50 GLP-1R/nM) | EC50 ([2]; read-out: EC50 GIP-R/nM) | EC50 ([3]; PathHunter β-arrestin assay, read-out: β-arrestin activity EC50)
CCCCCCCCCCCCCCCC(=O)N[C@@H](CCC(=O)NCCCC[C@H](NC(=O)[C@H](CO)NC(=O)[C@@H]1CCCN1C(=O)[C@@H]1CCCN1C(=O)[C@@H]1CCCN1C(=O)[C@H](C)NC(=O)CNC(=O)[C@H](CO)NC(=O)[C@H](CO)NC(=O)[C@@H]1CCCN1C(=O)CNC(=O)CNC(=O)[C@H](C)NC(=O)[C@H](CC(C)C)NC(=O)[C@H](CC(C)C)NC(=O)[C@H](Cc1c[nH]c2ccccc12)NC(=O)[C@H](CC(N)=O)NC(=O)[C@@H](NC(=O)[C@H](Cc1ccccc1)NC(=O)[C@H](CCC(=O)O)NC(=O)C(C)(C)NC(=O)[C@H](C)NC(=O)[C@H](C)NC(=O)[C@H](CCC(N)=O)NC(=O)[C@H](CCCCN)NC(=O)[C@H](CC(=O)O)NC(=O)[C@H](CC(C)C)NC(=O)[C@H](Cc1ccc(O)cc1)NC(=O)[C@@H](NC(=O)[C@H](CO)NC(=O)[C@H](Cc1ccc(O)cc1)NC(=O)[C@H](CC(=O)O)NC(=O)[C@H](CO)NC(=O)[C@@H](NC(=O)[C@H](Cc1ccccc1)NC(=O)[C@@H](NC(=O)CNC(=O)[C@H](CCC(=O)O)NC(=O)CSCC(=O)NCCn1cc(C)ccc1=O)[C@@H](C)O)[C@@H](C)O)[C@@H](C)CC)C(C)C)C(N)=O)C(=O)O [Compound 238] | 0.1 to 1 nM | 95% | 1 to 10 nM | 82% | > 1000 nM | – | – | –
CCCCCCCCCCCCCCCC(=O)N[C@@H](CCC(=O)NCCCC[C@H](NC(=O)[C@H](CO)NC(=O)[C@@H]1CCCN1C(=O)[C@@H]1CCCN1C(=O)[C@@H]1CCCN1C(=O)[C@H](C)NC(=O)CNC(=O)[C@H](CO)NC(=O)[C@H](CO)NC(=O)[C@@H]1CCCN1C(=O)CNC(=O)CNC(=O)[C@H](C)NC(=O)[C@H](CC(C)C)NC(=O)[C@H](CC(C)C)NC(=O)[C@H](Cc1c[nH]c2ccccc12)NC(=O)[C@H](CC(N)=O)NC(=O)[C@@H](NC(=O)[C@H](Cc1ccccc1)NC(=O)[C@H](CCC(=O)O)NC(=O)C(C)(C)NC(=O)[C@H](C)NC(=O)[C@H](C)NC(=O)[C@H](CCC(N)=O)NC(=O)[C@H](CCCCN)NC(=O)[C@H](CC(=O)O)NC(=O)[C@H](CC(C)C)NC(=O)[C@H](Cc1ccc(O)cc1)NC(=O)[C@@H](NC(=O)[C@H](CO)NC(=O)[C@H](Cc1ccc(O)cc1)NC(=O)[C@H](CC(=O)O)NC(=O)[C@H](CO)NC(=O)[C@@H](NC(=O)[C@H](Cc1ccccc1)NC(=O)[C@@H](NC(=O)CNC(=O)[C@H](CCC(=O)O)NC(=O)CSCC(=O)NCCn1ccc(=O)[nH]c1=O)[C@@H](C)O)[C@@H](C)O)[C@@H](C)CC)C(C)C)C(N)=O)C(=O)O [Compound 239] | 0.1 to 1 nM | 100% | 10 to 100 nM | 46% | > 1000 nM | – | – | –
CCCCCCCCCCCCCCCC(=O)N[C@@H](CCC(=O)NCCCC[C@H](NC(=O)[C@H](CO)NC(=O)[C@@H]1CCCN1C(=O)[C@@H]1CCCN1C(=O)[C@@H]1CCCN1C(=O)[C@H](C)NC(=O)CNC(=O)[C@H](CO)NC(=O)[C@H](CO)NC(=O)[C@@H]1CCCN1C(=O)CNC(=O)CNC(=O)[C@H](C)NC(=O)[C@H](CC(C)C)NC(=O)[C@H](CC(C)C)NC(=O)[C@H](Cc1c[nH]c2ccccc12)NC(=O)[C@H](CC(N)=O)NC(=O)[C@@H](NC(=O)[C@H](Cc1ccccc1)NC(=O)[C@H](CCC(=O)O)NC(=O)C(C)(C)NC(=O)[C@H](C)NC(=O)[C@H](C)NC(=O)[C@H](CCC(N)=O)NC(=O)[C@H](CCCCN)NC(=O)[C@H](CC(=O)O)NC(=O)[C@H](CC(C)C)NC(=O)[C@H](Cc1ccc(O)cc1)NC(=O)[C@@H](NC(=O)[C@H](CO)NC(=O)[C@H](Cc1ccc(O)cc1)NC(=O)[C@H](CC(=O)O)NC(=O)[C@H](CO)NC(=O)[C@@H](NC(=O)[C@H](Cc1ccccc1)NC(=O)[C@@H](NC(=O)CNC(=O)[C@H](CCC(=O)O)NC(=O)CSCC(=O)NCCn1c(C)cccc1=O)[C@@H](C)O)[C@@H](C)O)[C@@H](C)CC)C(C)C)C(N)=O)C(=O)O [Compound 240] | 0.1 to 1 nM | 97% | 1 to 10 nM | 60% | > 1000 nM | – | – | –
CCCCCCCCCCCCCCCC(=O)N[C@@H](CCC(=O)NCCCC[C@H](NC(=O)[C@H](CO)NC(=O)[C@@H]1CCCN1C(=O)[C@@H]1CCCN1C(=O)[C@@H]1CCCN1C(=O)[C@H](C)NC(=O)CNC(=O)[C@H](CO)NC(=O)[C@H](CO)NC(=O)[C@@H]1CCCN1C(=O)CNC(=O)CNC(=O)[C@H](C)NC(=O)[C@H](CC(C)C)NC(=O)[C@H](CC(C)C)NC(=O)[C@H](Cc1c[nH]c2ccccc12)NC(=O)[C@H](CC(N)=O)NC(=O)[C@@H](NC(=O)[C@H](Cc1ccccc1)NC(=O)[C@H](CCC(=O)O)NC(=O)C(C)(C)NC(=O)[C@H](C)NC(=O)[C@H](C)NC(=O)[C@H](CCC(N)=O)NC(=O)[C@H](CCCCN)NC(=O)[C@H](CC(=O)O)NC(=O)[C@H](CC(C)C)NC(=O)[C@H](Cc1ccc(O)cc1)NC(=O)[C@@H](NC(=O)[C@H](CO)NC(=O)[C@H](Cc1ccc(O)cc1)NC(=O)[C@H](CC(=O)O)NC(=O)[C@H](CO)NC(=O)[C@@H](NC(=O)[C@H](Cc1ccccc1)NC(=O)[C@@H](NC(=O)CNC(=O)[C@H](CCC(=O)O)NC(=O)CSCC(=O)NCCn1[nH]c(=O)ccc1=O)[C@@H](C)O)[C@@H](C)O)[C@@H](C)CC)C(C)C)C(N)=O)C(=O)O [Compound 241] | 1 to 10 nM | 100% | 10 to 100 nM | 46% | > 1000 nM | – | – | –
CCCCCCCCCCCCCCCC(=O)N[C@@H](CCC(=O)NCCCC[C@H](NC(=O)[C@H](CO)NC(=O)[C@@H]1CCCN1C(=O)[C@@H]1CCCN1C(=O)[C@@H]1CCCN1C(=O)[C@H](C)NC(=O)CNC(=O)[C@H](CO)NC(=O)[C@H](CO)NC(=O)[C@@H]1CCCN1C(=O)CNC(=O)CNC(=O)[C@H](C)NC(=O)[C@H](CC(C)C)NC(=O)[C@H](CC(C)C)NC(=O)[C@H](Cc1c[nH]c2ccccc12)NC(=O)[C@H](CC(N)=O)NC(=O)[C@@H](NC(=O)[C@H](Cc1ccccc1)NC(=O)[C@H](CCC(=O)O)NC(=O)C(C)(C)NC(=O)[C@H](C)NC(=O)[C@H](C)NC(=O)[C@H](CCC(N)=O)NC(=O)[C@H](CCCCN)NC(=O)[C@H](CC(=O)O)NC(=O)[C@H](CC(C)C)NC(=O)[C@H](Cc1ccc(O)cc1)NC(=O)[C@@H](NC(=O)[C@H](CO)NC(=O)[C@H](Cc1ccc(O)cc1)NC(=O)[C@H](CC(=O)O)NC(=O)[C@H](CO)NC(=O)[C@@H](NC(=O)[C@H](Cc1ccccc1)NC(=O)[C@@H](NC(=O)CNC(=O)[C@H](CCC(=O)O)NC(=O)CCCC(=O)NCCN1CCOCC1=O)[C@@H](C)O)[C@@H](C)O)[C@@H](C)CC)C(C)C)C(N)=O)C(=O)O [Compound 243] | – | 103% | – | 20% | – | < 0.1 nM | 10 to 100 nM | > 1000 nM
